According to ChEMBL document CHEMBL3885861, “Open TG-GATES”:

Species: Rattus norvegicus
Test: Open TG-GATES - Regimen: Daily Repeat
Assay type: toxicity, organism-based, Sprague-Dawley
Set-up: regimen Daily Repeat, gender Male, age 6 weeks
Settings: in vivo, po, 0 mg/kg, route gavage, dose level Control; for Bas / Eos / Hb / Ht / Lym / MCH / MCHC / MCV / Mono / Neu / Plat / RBC / Ret / WBC: tissue Blood; for KIDNEY_L / KIDNEY_R / KIDNEY_TOTAL: tissue Kidney; for LIVER: tissue Liver; for A/G / ALP / ALT / AST / BUN / CRE / Ca / Cl / DBIL / GLC / IP / K / LDH / Na / PL / RALB / TBIL / TC / TG / TP / gamma-GTP: tissue Plasma

Work on CC(N)=O [ACETAMIDE] yielded a TERMINAL_BW (72 h, time 3 day) of 236.7 g, a Bas (72 h, time 3 day) of 0% and an Eos (72 h, time 3 day) of 1%. For the same compound, the Hb (72 h, time 3 day) was 13.1 g/dL, the Ht (72 h, time 3 day) was 40.5% and the Lym (72 h, time 3 day) was 71.4%. The MCH (72 h, time 3 day) was 20 pg, the MCHC (72 h, time 3 day) was 32.4% and the MCV (72 h, time 3 day) was 61.6 fL. For the same compound, the Mono (72 h, time 3 day) was 3.6%, the Neu (72 h, time 3 day) was 23% and the Plat (72 h, time 3 day) was 126.3 x10_4/uL. The RBC (72 h, time 3 day) was 658.2 x10_4/ul, the Ret (72 h, time 3 day) was 7.1% and the WBC (72 h, time 3 day) was 126.7 x10_2/uL. It also gave a KIDNEY_L (72 h, time 3 day) of 1 g, a KIDNEY_R (72 h, time 3 day) of 1 g and a KIDNEY_TOTAL (72 h, time 3 day) of 2 g. It also gave an LIVER (72 h, time 3 day) of 11.1 g, an A/G (72 h, time 3 day) of 1 and an ALP (72 h, time 3 day) of 1741.8 IU/L. The ALT (72 h, time 3 day) was 39.8 IU/L, the AST (72 h, time 3 day) was 71.6 IU/L and the BUN (72 h, time 3 day) was 15.2 mg/dL. For the same compound, the CRE (72 h, time 3 day) was 0.1 mg/dL, the Ca (72 h, time 3 day) was 10.7 mg/dL and the Cl (72 h, time 3 day) was 105.6 meq/L. The DBIL (72 h, time 3 day) was 0.004 mg/dL, the GLC (72 h, time 3 day) was 196 mg/dL and the IP (72 h, time 3 day) was 6.7 mg/dL. It also gave a K (72 h, time 3 day) of 4.4 meq/L, an LDH (72 h, time 3 day) of 180.4 IU/L and a Na (72 h, time 3 day) of 140.9 meq/L. The PL (72 h, time 3 day) was 162.6 mg/dL, the RALB (72 h, time 3 day) was 2.8 g/dL and the TBIL (72 h, time 3 day) was 0.002 mg/dL. For the same compound, the TC (72 h, time 3 day) was 85.2 mg/dL, the TG (72 h, time 3 day) was 108.8 mg/dL and the TP (72 h, time 3 day) was 5.6 g/dL. For the same compound, the gamma-GTP (72 h, time 3 day) was 0.8 IU/L, the TERMINAL_BW ([…], time 7 day) was 276.9 g and the TERMINAL_BW ([…], time 14 day) was 335.4 g. It also gave a TERMINAL_BW ([…], time 28 day) of 415.6 g, a Bas ([…], time 7 day) of 0% and an Eos ([…], time 7 day) of 1%. For the same compound, the Hb ([…], time 7 day) was 12.7 g/dL, the Ht ([…], time 7 day) was 38.9% and the Lym ([…], time 7 day) was 75.2%. The MCH ([…], time 7 day) was 19.9 pg, the MCHC ([…], time 7 day) was 32.7% and the MCV ([…], time 7 day) was 60.8 fL. The Mono ([…], time 7 day) was 3.2%, the Neu ([…], time 7 day) was 19.8% and the Plat ([…], time 7 day) was 131.8 x10_4/uL. For the same compound, the RBC ([…], time 7 day) was 640.2 x10_4/ul, the Ret ([…], time 7 day) was 6.7% and the WBC ([…], time 7 day) was 130.3 x10_2/uL. For the same compound, the Bas ([…], time 14 day) was 0%, the Eos ([…], time 14 day) was 1% and the Hb ([…], time 14 day) was 13.4 g/dL. For the same compound, the Ht ([…], time 14 day) was 40.3%, the Lym ([…], time 14 day) was 79.8% and the MCH ([…], time 14 day) was 19.6 pg. It also gave an MCHC ([…], time 14 day) of 33.2%, an MCV ([…], time 14 day) of 58.9 fL and a Mono ([…], time 14 day) of 3%. For the same compound, the Neu ([…], time 14 day) was 15.2%, the Plat ([…], time 14 day) was 119.7 x10_4/uL and the RBC ([…], time 14 day) was 685.6 x10_4/ul. The Ret ([…], time 14 day) was 5.2%, the WBC ([…], time 14 day) was 124.3 x10_2/uL and the Bas ([…], time 28 day) was 0%. It also gave an Eos ([…], time 28 day) of 1%, a Hb ([…], time 28 day) of 13.5 g/dL and a Ht ([…], time 28 day) of 41.1%. It also gave a Lym ([…], time 28 day) of 82.2%, an MCH ([…], time 28 day) of 18.5 pg and an MCHC ([…], time 28 day) of 32.8%. For the same compound, the MCV ([…], time 28 day) was 56.3 fL, the Mono ([…], time 28 day) was 2.2% and the Neu ([…], time 28 day) was 14.2%. It also gave a Plat ([…], time 28 day) of 99.3 x10_4/uL, an RBC ([…], time 28 day) of 729.2 x10_4/ul and a Ret ([…], time 28 day) of 4.1%. The WBC ([…], time 28 day) was 118.1 x10_2/uL, the KIDNEY_L ([…], time 7 day) was 1.1 g and the KIDNEY_R ([…], time 7 day) was 1.2 g. The KIDNEY_TOTAL ([…], time 7 day) was 2.3 g, the KIDNEY_L ([…], time 14 day) was 1.3 g and the KIDNEY_R ([…], time 14 day) was 1.3 g. It also gave a KIDNEY_TOTAL ([…], time 14 day) of 2.6 g, a KIDNEY_L ([…], time 28 day) of 1.4 g and a KIDNEY_R ([…], time 28 day) of 1.4 g. For the same compound, the KIDNEY_TOTAL ([…], time 28 day) was 2.8 g, the LIVER ([…], time 7 day) was 12.8 g and the LIVER ([…], time 14 day) was 14.7 g. For the same compound, the LIVER ([…], time 28 day) was 16 g, the A/G ([…], time 7 day) was 0.9 and the ALP ([…], time 7 day) was 1570 IU/L. The ALT ([…], time 7 day) was 38.2 IU/L, the AST ([…], time 7 day) was 64.2 IU/L and the BUN ([…], time 7 day) was 16.1 mg/dL. For the same compound, the CRE ([…], time 7 day) was 0.2 mg/dL, the Ca ([…], time 7 day) was 10.5 mg/dL and the Cl ([…], time 7 day) was 103.4 meq/L. For the same compound, the DBIL ([…], time 7 day) was 0 mg/dL, the GLC ([…], time 7 day) was 195.2 mg/dL and the IP ([…], time 7 day) was 6.6 mg/dL. The K ([…], time 7 day) was 4.7 meq/L, the LDH ([…], time 7 day) was 164.6 IU/L and the Na ([…], time 7 day) was 140.6 meq/L. It also gave a PL ([…], time 7 day) of 148.6 mg/dL, an RALB ([…], time 7 day) of 2.8 g/dL and a TBIL ([…], time 7 day) of 0 mg/dL. It also gave a TC ([…], time 7 day) of 72.6 mg/dL, a TG ([…], time 7 day) of 135.5 mg/dL and a TP ([…], time 7 day) of 5.7 g/dL. For the same compound, the gamma-GTP ([…], time 7 day) was 0.7 IU/L, the A/G ([…], time 14 day) was 0.9 and the ALP ([…], time 14 day) was 1394.4 IU/L. For the same compound, the ALT ([…], time 14 day) was 33.2 IU/L, the AST ([…], time 14 day) was 64.6 IU/L and the BUN ([…], time 14 day) was 17.9 mg/dL. The CRE ([…], time 14 day) was 0.2 mg/dL, the Ca ([…], time 14 day) was 10.4 mg/dL and the Cl ([…], time 14 day) was 103.5 meq/L. For the same compound, the DBIL ([…], time 14 day) was 0 mg/dL, the GLC ([…], time 14 day) was 196.6 mg/dL and the IP ([…], time 14 day) was 6.6 mg/dL. The K ([…], time 14 day) was 4.2 meq/L, the LDH ([…], time 14 day) was 170.6 IU/L and the Na ([…], time 14 day) was 141.6 meq/L. It also gave a PL ([…], time 14 day) of 156 mg/dL, an RALB ([…], time 14 day) of 2.7 g/dL and a TBIL ([…], time 14 day) of 0 mg/dL. The TC ([…], time 14 day) was 72 mg/dL, the TG ([…], time 14 day) was 191.9 mg/dL and the TP ([…], time 14 day) was 5.8 g/dL. For the same compound, the gamma-GTP ([…], time 14 day) was 0.8 IU/L, the A/G ([…], time 28 day) was 0.8 and the ALP ([…], time 28 day) was 983.4 IU/L. It also gave an ALT ([…], time 28 day) of 34.2 IU/L, an AST ([…], time 28 day) of 64.6 IU/L and a BUN ([…], time 28 day) of 16.3 mg/dL. The CRE ([…], time 28 day) was 0.2 mg/dL, the Ca ([…], time 28 day) was 10.3 mg/dL and the Cl ([…], time 28 day) was 103.9 meq/L. The DBIL ([…], time 28 day) was 0.004 mg/dL, the GLC ([…], time 28 day) was 204.8 mg/dL and the IP ([…], time 28 day) was 6.3 mg/dL. For the same compound, the K ([…], time 28 day) was 4.1 meq/L, the LDH ([…], time 28 day) was 179.6 IU/L and the Na ([…], time 28 day) was 142.3 meq/L. For the same compound, the PL ([…], time 28 day) was 133.2 mg/dL, the RALB ([…], time 28 day) was 2.7 g/dL and the TBIL ([…], time 28 day) was 0.002 mg/dL. The TC ([…], time 28 day) was 60.2 mg/dL, the TG ([…], time 28 day) was 133.7 mg/dL and the TP ([…], time 28 day) was 6 g/dL. It also gave a gamma-GTP ([…], time 28 day) of 0.9 IU/L.
